The source of these data is US11076595B2, “1-(n,n-disubstituted carbamoyl) 4-(substituted sulfonyl)triazolin-5-one derivative, 4-(n,n-disubstituted carbamoyl) 1-(substituted sulfonyl)triazolin-5-one derivative, and herbicide containing said derivative as active ingredient” (HOKKO CHEMICAL INDUSTRY CO., LTD., priority 2017, dated 2021).

What all share (format): in vivo
Experiment [1] deals with Echinochloa crus-galli. Nature of the experiment: Test Example 11: herbicidal effect test by soil treatment in paddy field. The settings on record: 120 g/10a active ingredient, 14 days after treatment. A digest of the protocol:
(§1)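 Dry weight at day 14 relative to untreated controls gives the suppression rate; duplicate pots. Treatment: 120 g a.i./10 are into paddy water at sowing.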

Experiment [2] deals with Lindernia pyxidaria. Described as above. The settings on record: 120 g/10a active ingredient, 14 days after treatment. An outline of the steps: as §1
The test system of experiment [3] is Monochoria vaginalis. The experiment is described as above. The settings on record: 120 g/10a active ingredient, 14 days after treatment. A digest of the protocol:
as §1

The test system of experiment [4] is Scirpus juncoides. The description is as above. The settings on record: 120 g/10a active ingredient, 14 days after treatment. A digest of the protocol:
as §1

Experiment [5] relates to Echinochloa crus-galli. Kind of experiment: Test Example 12: herbicidal effect test by treatment during growing period in paddy field. The note with it: 120 g/10a; treatment seven days after sowing in flooded paddy pot; assessed 14 days after treatment. Here is the method: (§2) This test was performed with two replications per one formulation concentration plot, and 14 days after the formulation treatments, the weed suppression rate (%) was determined according to the following equation (Math. 2). Weed suppression rate (%)=(1−average dry weight (g) of plants in treated plots/average dry weight (g) of plants in untreated plots)×100 [Math. 2]
(§3) A Wagner pot having an area of 1/10000 are was filled with paddy field soil and after adding water, a chemical fertilizer (N:P:K=17:17:17) was mixed, followed by puddling. Thereafter, 30 grains of each of Echinochloa crus-galli, broad-leaved weed (Lindernia pyxidaria, Monochoria vaginalis) and Scirpus juncoides seeds were sown to a depth of 0 to 1 cm. Immediately after the sowing, the pot was flooded, and the depth of water was kept at about 3 cm. The pot was subsequently managed in a glass greenhouse. Seven Days after sowing, an emulsifiable concentrate prepared according to Formulation Example 15 by using the compound shown in Table 10 below was diluted with water, and a predetermined amount of the water-diluted formulation was added dropwise. The application rate of the active ingredient, by conversion, corresponded to 120 g per 10 are. The test was performed with two replications per one formulation concentration plot, and 14 days after the formulation treatments, the weed suppression rate (%) was determined according to the equation (Math. 2).

The test system of experiment [6] is Lindernia pyxidaria. Described as above. The note with it: 120 g/10a; treatment seven days after sowing in flooded paddy pot; assessed 14 days after treatment. The protocol:
as §2, §3

Experiment [7] concerns Monochoria vaginalis. Described as above. The note with it: 120 g/10a; treatment seven days after sowing in flooded paddy pot; assessed 14 days after treatment. The protocol:
as §2, §3

The subject of experiment [8] is Scirpus juncoides. The description is as above. The note with it: 120 g/10a; treatment seven days after sowing in flooded paddy pot; assessed 14 days after treatment. Here is the method:
as §2, §3

Regarding `CC(C)N(C(=O)n1cnn(S(=O)(=O)c2cccc(F)c2)c1=O)c1cccc(F)c1F` [Compound 11-437], the “Weed suppression rate (%) Echinochloa crus-galli” value with Echinochloa crus-galli [1] and in the experiment with Echinochloa crus-galli [5] was 100% throughout. The “Weed suppression rate (%) Lindemia pyxidaria” value with Lindernia pyxidaria [2] is 80%; in the experiment with Lindernia pyxidaria [6], 100%. The results for the “Weed suppression rate (%) Monochoria vaginalis” value in the experiment with Monochoria vaginalis [3] and in the experiment with Monochoria vaginalis [7] were 80% and 100%, respectively. Besides, the figures for the “Weed suppression rate (%) Scirpus juncoides” value with Scirpus juncoides [4] and with Scirpus juncoides [8] were 80% and 100%, respectively.

Take `CC(C)N(C(=O)n1cnn(S(=O)(=O)c2cccc(F)c2)c1=O)c1ccc(F)c(F)c1F` [Compound 11-441]: the “Weed suppression rate (%) Echinochloa crus-galli” value in the experiment with Echinochloa crus-galli [1] and in the experiment with Echinochloa crus-galli [5] was 100% in each case. Also, the “Weed suppression rate (%) Lindemia pyxidaria” value with Lindernia pyxidaria [2] is on record as 90%; in the experiment with Lindernia pyxidaria [6], 60%. For the same molecule, the “Weed suppression rate (%) Monochoria vaginalis” value was 60% in the experiment with Monochoria vaginalis [3] and 80% in the experiment on Monochoria vaginalis [7]. Moreover, the “Weed suppression rate (%) Scirpus juncoides” value with Scirpus juncoides [4] and in the experiment with Scirpus juncoides [8] was 100% in each case.

As for `CC(C)N(C(=O)n1cnn(S(=O)(=O)c2cccc(F)c2)c1=O)c1c(F)cc(F)cc1F` [Compound 11-442], the “Weed suppression rate (%) Echinochloa crus-galli” value in the experiment on Echinochloa crus-galli [1] and in the experiment on Echinochloa crus-galli [5] was 100% throughout. For the same molecule, the “Weed suppression rate (%) Lindemia pyxidaria” value in the experiment on Lindernia pyxidaria [2] and in the experiment with Lindernia pyxidaria [6] was 80% throughout. The “Weed suppression rate (%) Monochoria vaginalis” value is 70% with Monochoria vaginalis [3] and 90% with Monochoria vaginalis [7]. Besides, the “Weed suppression rate (%) Scirpus juncoides” value in the experiment with Scirpus juncoides [4] and with Scirpus juncoides [8] was 80% throughout.

On to `CC(C)N(C(=O)n1cnn(S(=O)(=O)c2cccc(F)c2)c1=O)c1c(F)c(F)cc(F)c1F` [Compound 11-443], for which the “Weed suppression rate (%) Echinochloa crus-galli” value in the experiment with Echinochloa crus-galli [1] is recorded as 80%; in the experiment on Echinochloa crus-galli [5] it was 70%. Moreover, the “Weed suppression rate (%) Lindemia pyxidaria” value with Lindernia pyxidaria [2] and with Lindernia pyxidaria [6] was 70% each time. Also, the “Weed suppression rate (%) Monochoria vaginalis” value in the experiment on Monochoria vaginalis [3] and in the experiment with Monochoria vaginalis [7] was 70% each time. Besides, the “Weed suppression rate (%) Scirpus juncoides” value with Scirpus juncoides [4] and with Scirpus juncoides [8] was 100% each time.

In the case of `CC(C)N(C(=O)n1cnn(S(=O)(=O)c2ccc(F)cc2)c1=O)c1ccccc1F` [Compound 11-465], the “Weed suppression rate (%) Echinochloa crus-galli” value in the experiment with Echinochloa crus-galli [1] and in the experiment on Echinochloa crus-galli [5] was 90% in each case. The “Weed suppression rate (%) Lindemia pyxidaria” value in the experiment with Lindernia pyxidaria [2] and in the experiment with Lindernia pyxidaria [6] was 80% throughout. For the same molecule, the “Weed suppression rate (%) Monochoria vaginalis” value in the experiment with Monochoria vaginalis [3] and in the experiment with Monochoria vaginalis [7] was 80% in each case. Besides, the “Weed suppression rate (%) Scirpus juncoides” value with Scirpus juncoides [4] and with Scirpus juncoides [8] was 90% in each case.

On to `CC(C)N(C(=O)n1cnn(S(=O)(=O)c2ccc(F)cc2)c1=O)c1cccc(F)c1F` [Compound 11-474], for which the “Weed suppression rate (%) Echinochloa crus-galli” value in the experiment on Echinochloa crus-galli [1] and in the experiment with Echinochloa crus-galli [5] was 100% in each case. Also, the “Weed suppression rate (%) Lindemia pyxidaria” value in the experiment with Lindernia pyxidaria [2] and with Lindernia pyxidaria [6] was 100% each time. Also, the “Weed suppression rate (%) Monochoria vaginalis” value in the experiment on Monochoria vaginalis [3] stood at 100%; in the experiment with Monochoria vaginalis [7], 90%. Also, the “Weed suppression rate (%) Scirpus juncoides” value with Scirpus juncoides [4] and in the experiment on Scirpus juncoides [8] was 100% each time.

For `CC(C)N(C(=O)n1cnn(S(=O)(=O)c2ccc(F)cc2)c1=O)c1ccc(F)c(F)c1F` [Compound 11-478], the “Weed suppression rate (%) Echinochloa crus-galli” value in the experiment with Echinochloa crus-galli [1] and with Echinochloa crus-galli [5] was 100% each time. Moreover, the “Weed suppression rate (%) Lindemia pyxidaria” value turned out to be 100% with Lindernia pyxidaria [2] and 70% in the experiment on Lindernia pyxidaria [6]. For the same molecule, the “Weed suppression rate (%) Monochoria vaginalis” value in the experiment on Monochoria vaginalis [3] came to 100%; with Monochoria vaginalis [7] it was 90%. The “Weed suppression rate (%) Scirpus juncoides” value in the experiment with Scirpus juncoides [4] and in the experiment on Scirpus juncoides [8] was 100% each time.

With `CC(C)N(C(=O)n1cnn(S(=O)(=O)c2ccc(F)cc2)c1=O)c1c(F)cc(F)cc1F` [Compound 11-479], the “Weed suppression rate (%) Echinochloa crus-galli” value with Echinochloa crus-galli [1] and with Echinochloa crus-galli [5] was 100% each time. Moreover, the “Weed suppression rate (%) Lindemia pyxidaria” value is recorded as 100% with Lindernia pyxidaria [2] and 70% with Lindernia pyxidaria [6]. Also, the “Weed suppression rate (%) Monochoria vaginalis” value in the experiment with Monochoria vaginalis [3] and in the experiment on Monochoria vaginalis [7] was 80% throughout. In addition, the “Weed suppression rate (%) Scirpus juncoides” value with Scirpus juncoides [4] worked out at 100%; in the experiment on Scirpus juncoides [8], 80%.

Take `CC(C)N(C(=O)n1cnn(S(=O)(=O)c2ccc(F)cc2)c1=O)c1c(F)c(F)cc(F)c1F` [Compound 11-480]: the “Weed suppression rate (%) Echinochloa crus-galli” value in the experiment on Echinochloa crus-galli [1] and with Echinochloa crus-galli [5] was 100% each time. Also, the “Weed suppression rate (%) Lindemia pyxidaria” value is reported as 90% with Lindernia pyxidaria [2] and 80% with Lindernia pyxidaria [6]. Besides, the “Weed suppression rate (%) Monochoria vaginalis” value with Monochoria vaginalis [3] came out at 80%; in the experiment on Monochoria vaginalis [7], 70%. Moreover, the “Weed suppression rate (%) Scirpus juncoides” value is given as 90% in the experiment with Scirpus juncoides [4] and 100% in the experiment on Scirpus juncoides [8].

Regarding `CC(C)N(C(=O)n1cnn(S(=O)(=O)c2ccc(F)cc2)c1=O)c1ccc(Br)cc1Cl` [Compound 11-486], the “Weed suppression rate (%) Echinochloa crus-galli” value in the experiment with Echinochloa crus-galli [1] is recorded as 90%; in the experiment with Echinochloa crus-galli [5] it was 60%. Further, the “Weed suppression rate (%) Lindemia pyxidaria” value was 90% with Lindernia pyxidaria [2] and 70% with Lindernia pyxidaria [6]. Also, the “Weed suppression rate (%) Monochoria vaginalis” value in the experiment on Monochoria vaginalis [3] came out at 80%; with Monochoria vaginalis [7], 70%. Further, the results for the “Weed suppression rate (%) Scirpus juncoides” value in the experiment with Scirpus juncoides [4] and in the experiment with Scirpus juncoides [8] were 80% and 60%, respectively.

`CC(C)N(C(=O)n1cnn(S(=O)(=O)c2ccccc2Cl)c1=O)c1ccccc1F` [Compound 11-502]: the “Weed suppression rate (%) Echinochloa crus-galli” value in the experiment on Echinochloa crus-galli [1] and in the experiment on Echinochloa crus-galli [5] was 90% each time. For the same molecule, the “Weed suppression rate (%) Lindemia pyxidaria” value in the experiment with Lindernia pyxidaria [2] and in the experiment with Lindernia pyxidaria [6] was 80% throughout. For the same molecule, the “Weed suppression rate (%) Monochoria vaginalis” value with Monochoria vaginalis [3] and with Monochoria vaginalis [7] was 80% in each case. Further, the “Weed suppression rate (%) Scirpus juncoides” value in the experiment on Scirpus juncoides [4] and in the experiment on Scirpus juncoides [8] was 90% throughout.

Regarding `CC(C)N(C(=O)n1cnn(S(=O)(=O)c2ccccc2Cl)c1=O)c1cccc(F)c1F` [Compound 11-511], the “Weed suppression rate (%) Echinochloa crus-galli” value in the experiment on Echinochloa crus-galli [1] and in the experiment with Echinochloa crus-galli [5] was 100% each time. Moreover, the “Weed suppression rate (%) Lindemia pyxidaria” value is given as 100% in the experiment with Lindernia pyxidaria [2] and 80% with Lindernia pyxidaria [6]. In addition, the “Weed suppression rate (%) Monochoria vaginalis” value in the experiment with Monochoria vaginalis [3] was found to be 90%; in the experiment on Monochoria vaginalis [7] it was 100%. Moreover, the “Weed suppression rate (%) Scirpus juncoides” value with Scirpus juncoides [4] and in the experiment on Scirpus juncoides [8] was 100% in each case.

As to `CC(C)N(C(=O)n1cnn(S(=O)(=O)c2ccccc2Cl)c1=O)c1ccc(F)c(F)c1F` [Compound 11-515], the “Weed suppression rate (%) Echinochloa crus-galli” value with Echinochloa crus-galli [1] and in the experiment with Echinochloa crus-galli [5] was 100% throughout. Besides, the “Weed suppression rate (%) Lindemia pyxidaria” value in the experiment with Lindernia pyxidaria [2] came out at 90%; in the experiment on Lindernia pyxidaria [6], 70%. Also, the “Weed suppression rate (%) Monochoria vaginalis” value in the experiment on Monochoria vaginalis [3] worked out at 80%; in the experiment on Monochoria vaginalis [7], 100%. Moreover, the “Weed suppression rate (%) Scirpus juncoides” value in the experiment on Scirpus juncoides [4] and in the experiment with Scirpus juncoides [8] was 100% throughout.

`CC(C)N(C(=O)n1cnn(S(=O)(=O)c2ccccc2Cl)c1=O)c1c(F)cc(F)cc1F` [Compound 11-516]: the “Weed suppression rate (%) Echinochloa crus-galli” value in the experiment with Echinochloa crus-galli [1] and with Echinochloa crus-galli [5] was 100% each time. Also, the “Weed suppression rate (%) Lindemia pyxidaria” value in the experiment with Lindernia pyxidaria [2] worked out at 90%; in the experiment on Lindernia pyxidaria [6] it was 70%. Besides, the “Weed suppression rate (%) Monochoria vaginalis” value in the experiment with Monochoria vaginalis [3] and in the experiment on Monochoria vaginalis [7] was 80% throughout. Moreover, the “Weed suppression rate (%) Scirpus juncoides” value in the experiment on Scirpus juncoides [4] is reported as 90%; with Scirpus juncoides [8] it was 70%.

Take `CC(C)N(C(=O)n1cnn(S(=O)(=O)c2ccccc2Cl)c1=O)c1ccc(F)cc1Cl` [Compound 11-519]: the entries for the “Weed suppression rate (%) Echinochloa crus-galli” value in the experiment on Echinochloa crus-galli [1] and in the experiment with Echinochloa crus-galli [5] were 100% and 80%, respectively. Further, the “Weed suppression rate (%) Lindemia pyxidaria” value with Lindernia pyxidaria [2] stood at 100%; in the experiment with Lindernia pyxidaria [6], 70%. For the same molecule, the “Weed suppression rate (%) Monochoria vaginalis” value in the experiment on Monochoria vaginalis [3] and in the experiment on Monochoria vaginalis [7] was 70% throughout. The “Weed suppression rate (%) Scirpus juncoides” value in the experiment with Scirpus juncoides [4] worked out at 100%; with Scirpus juncoides [8], 80%.
